Drawing on PubChem BioAssay (NCI), this text covers TGI for ten compounds.

Test systems include MOLT-4 leukemia; PC-3 prostate; SNB-19 CNS; NCI-H522 lung; SW-620 colon; NCI/ADR-RES ovarian; ACHN renal; T-47D breast; RXF 393 renal; NCI-H226 lung; A498 renal; HS 578T breast; UO-31 renal; MALME-3M melanoma; UACC-62 melanoma; COLO 205 colon; HCT-116 colon; U251 CNS.
Holding throughout (experiment): NCI anticancer screen, dose series, 48 h

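Interpolation was linear, between the two tested concentrations surrounding the appropriate level; five concentrations were tested over 48 hours in 96-well plates. TGI: total growth inhibition.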

`CCSc1nc(N2CCOCC2)c2cn[nH]c2n1`: the TGI in the assay on MOLT-4 leukemia, in the assay on PC-3 prostate, in the assay on SNB-19 CNS, in the assay on NCI-H522 lung, in the assay on SW-620 colon and with NCI/ADR-RES ovarian was more than 100 µM in each case. The TGI with ACHN renal was more than 100 µM; in the assay on T-47D breast, more than 100 µM; with RXF 393 renal, more than 100 µM; in the assay with NCI-H226 lung, more than 100 µM; in the assay on A498 renal it was 15.9 µM; in the assay with HS 578T breast it was more than 100 µM. Besides, the TGI in the assay on UO-31 renal, with MALME-3M melanoma, in the assay on UACC-62 melanoma, with COLO 205 colon, in the assay on HCT-116 colon and in the assay with U251 CNS was more than 100 µM in each case.
With `CC(=O)OC1CC2OC(Cc3ccccc32)O1` (stereo not drawn), the TGI in the assay with MOLT-4 leukemia, in the assay on SNB-19 CNS, in the assay on NCI-H522 lung, in the assay with SW-620 colon, with ACHN renal and in the assay on RXF 393 renal was more than 100 µM in each case. For the same compound, the TGI in the assay with NCI-H226 lung is more than 100 µM; in the assay on UO-31 renal, more than 100 µM; with MALME-3M melanoma, 63.7 µM; in the assay with UACC-62 melanoma, more than 100 µM; with COLO 205 colon, more than 100 µM; in the assay with HCT-116 colon, more than 100 µM. Also, the TGI in the assay with U251 CNS is more than 100 µM.
For `CN(C)/N=C(\CCN1CCCC1)CC(c1ccccc1)c1c(O)c2ccccc2oc1=O` (stereo not drawn), the TGI in the assay on SNB-19 CNS, with NCI-H522 lung, with SW-620 colon, with ACHN renal, in the assay with RXF 393 renal and in the assay on NCI-H226 lung was more than 100 µM throughout. In addition, the TGI in the assay with MALME-3M melanoma, with UACC-62 melanoma, with COLO 205 colon and in the assay with HCT-116 colon was more than 100 µM in each case.
As for `CC1=CC(=O)NP(=O)(Oc2ccc(C)cc2)N1` (stereo not drawn), the TGI in the assay with MOLT-4 leukemia, in the assay with SNB-19 CNS, with NCI-H522 lung, in the assay with SW-620 colon, in the assay with ACHN renal and with NCI-H226 lung was more than 100 µM throughout. Besides, the TGI in the assay with A498 renal, with UO-31 renal, in the assay on MALME-3M melanoma, in the assay with UACC-62 melanoma, with COLO 205 colon and in the assay on HCT-116 colon was more than 100 µM in each case. The compound further displayed a TGI with U251 CNS of more than 100 µM.
As to `Cc1cc(NS(=O)(=O)c2ccc(N=Nc3c(O)c(C(=O)O)cc4ccccc34)cc2)nc(C)n1`, the TGI with MOLT-4 leukemia, with PC-3 prostate, with SNB-19 CNS, in the assay with NCI-H522 lung, with SW-620 colon and with NCI/ADR-RES ovarian was more than 100 µM in each case. In addition, the TGI in the assay with ACHN renal, in the assay on RXF 393 renal, in the assay on NCI-H226 lung, with HS 578T breast, in the assay with UO-31 renal and with MALME-3M melanoma was more than 100 µM in each case. In addition, the TGI with UACC-62 melanoma, in the assay on COLO 205 colon, with HCT-116 colon and with U251 CNS was more than 100 µM each time.
For `CC1=CC(=O)NCCN1C`, the TGI in the assay on MOLT-4 leukemia, with SNB-19 CNS, in the assay on NCI-H522 lung, with SW-620 colon, with ACHN renal and with RXF 393 renal was more than 100 µM throughout. Also, the TGI with NCI-H226 lung, with A498 renal, in the assay on UO-31 renal, in the assay with MALME-3M melanoma, in the assay on UACC-62 melanoma and with COLO 205 colon was more than 100 µM each time. Further, the TGI in the assay with HCT-116 colon and in the assay on U251 CNS was more than 100 µM in each case.
Turning to `Cc1oc2nc(N(C)C)nc(Cl)c2c1C`, the TGI with MOLT-4 leukemia, in the assay with PC-3 prostate, with SNB-19 CNS, in the assay with NCI-H522 lung, in the assay with SW-620 colon and with NCI/ADR-RES ovarian was more than 100 µM each time. The TGI with ACHN renal, in the assay with T-47D breast, in the assay with RXF 393 renal, with NCI-H226 lung, with A498 renal and with HS 578T breast was more than 100 µM in each case. The TGI in the assay with UO-31 renal, with UACC-62 melanoma, with COLO 205 colon, in the assay with HCT-116 colon and in the assay on U251 CNS was more than 100 µM each time.
As to `O=C1c2ccccc2S[C@@H](O)[C@@H]2CCCN12`, the TGI in the assay on MOLT-4 leukemia, in the assay with SNB-19 CNS, in the assay with NCI-H522 lung, in the assay on SW-620 colon, in the assay on ACHN renal and with RXF 393 renal was more than 100 µM in each case. Moreover, the TGI with UO-31 renal, with MALME-3M melanoma, with UACC-62 melanoma, in the assay on COLO 205 colon, with HCT-116 colon and in the assay with U251 CNS was more than 100 µM each time.
In the case of `COc1cccc(C2c3cc4c(cc3OC(N3CCCC3)C2C)OCO4)c1` (stereo not drawn), the TGI was 46.9 µM with PC-3 prostate; 61.4 µM with SNB-19 CNS; 22.5 µM in the assay on NCI-H522 lung; more than 100 µM in the assay with SW-620 colon; 33.5 µM in the assay on NCI/ADR-RES ovarian; 83.8 µM in the assay with ACHN renal. In addition, the TGI was determined as 70.9 µM with T-47D breast; 34.6 µM in the assay with HS 578T breast; 41.4 µM in the assay with UO-31 renal; 34.5 µM in the assay with UACC-62 melanoma; 36.7 µM with COLO 205 colon; 18.3 µM in the assay with HCT-116 colon.
For the compound `COc1cc2c(c(OC)c1OC)-c1ccc(SC)c(=O)cc1C(CC(=O)Oc1ccc([N+](=O)[O-])cc1)C2` (stereo not drawn), the TGI was more than 100 µM in the assay with MOLT-4 leukemia; more than 31.8 µM in the assay on SNB-19 CNS; more than 48.7 µM with SW-620 colon; more than 40.5 µM in the assay with ACHN renal; 0.65 µM in the assay on RXF 393 renal; 0.865 µM with NCI-H226 lung. The TGI is 0.571 µM in the assay on A498 renal; more than 100 µM in the assay on UO-31 renal; more than 65.2 µM with MALME-3M melanoma; 11.4 µM in the assay on UACC-62 melanoma; 1.09 µM in the assay on COLO 205 colon; 1.82 µM in the assay on HCT-116 colon. In the assay with U251 CNS, the TGI came to 1.43 µM.
